Measured values: patent US11427783B2, “Perfuming compositions” (Firmenich SA, priority 2016, dated 2022)
Read-outs that look alike come from different tables or passages of the source.

Legend:
[1] = physchem
[2] = Volatility of perfuming compounds in air; type: physicochemical
[3] = Log P (n-octanol/water) of perfuming compounds
[4] = Table 5, perfuming compounds having a green note
[5] = Table 9, perfuming compounds having a gourmand note
[6] = Table 10, perfuming compounds having a woody note
[7] = Table 8, perfuming compounds having a sweet note
[8] = Table 6, perfuming compounds having a fruity note

CCCCCCCC(=O)OCC [ethyl octanoate]
logP ([1]; n-octanol/water): 4.2
Volatility [2, 4]: 800.05 μg/l air

C=CC1(C)CCCC(C)(C)O1 (racemic)
logP ([1]; n-octanol/water): 3.59
Volatility [2, 4]: 23116.66 μg/l air

COC(=O)C=C1CCCC1 [methyl cyclopentylideneacetate]
logP ([1]; n-octanol/water): 2.02

C[C@@H]1CC[C@H]2[C@H](C)C(=O)O[C@@H]2C1
logP ([1]; n-octanol/water): 2.11
Volatility (μg/l air) [2, 5]: 74.03 μg/l air

O=Cc1ccc2c(c1)OCO2 [benzo[d][1,3]dioxole-5-carbaldehyde]
logP [1]: 1.52
Volatility (μg/l air) [2, 5]: 61.82 μg/l air

CCOC(=O)c1ccccc1 [ETHYL BENZOATE]
logP [1]: 2.51

O=C1CCC2(CCCCC2)O1 [1-oxaspiro[4.5]decan-2-one]
logP ([1]; n-octanol/water): 1.66
Volatility (μg/l air) [2, 5]: 62.86 μg/l air

CC1CCC2(O1)C(C)(C)CCCC2(C)O (racemic)
Volatility (μg/l air) [2, 6]: 84.04 μg/l air
Log P (n-octanol/water) [3, 6]: 3.51

CC(CO)c1ccccc1 (racemic) [(+−)-2-phenyl-1-propanol]
logP ([1]; n-octanol/water): 1.74
Volatility [2, 4]: 142.19 μg/l air

CCCCSCCCC [DIBUTYL SULFIDE]
logP ([1]; n-octanol/water): 4.86
Volatility [2, 4]: 2766.10 μg/l air

C=CC(O)CCCCC (racemic) [(+−)-1-octen-3-ol]
logP ([1]; n-octanol/water): 2.33
Volatility [2, 4]: 3030.11 μg/l air

CC/C=C\CCCCCO [(Z)-6-NONEN-1-OL]
logP [1]: 3.44
logP ([1]; n-octanol/water): 3.44
Volatility ([2]; Table 4, watery note): 6.91 μg/l air
Volatility [2, 4]: 6.91 μg/l air

CCOC(=O)C(C)C [ETHYL ISOBUTYRATE]
logP ([1]; n-octanol/water): 2.03

CCCC(O)CC[C@@H]1[C@@H](C)CCCC1(C)C (mixture of isomers)
logP ([1]; n-octanol/water): 5.42
Volatility (μg/l air) [2, 6]: 2.34 μg/l air

CCOC(=O)/C(C)=C/C(C)C [ethyl (2E)-2,4-dimethyl-2-pentenoate]
logP ([1]; n-octanol/water): 3.35

CC1CCC2C(C)(C)C3CC12CCC3(C)O (racemic)
logP [1]: 5.39
Volatility (μg/l air) [2, 6]: 11.83 μg/l air

CC/C=C\CCOC(C)=O [(Z)-3-HEXENYL ACETATE]
Volatility [2, 4]: 3398.34 μg/l air

CC1OCCC12NCCS2 (racemic)
Volatility (μg/l air) [2, 7]: 52.47 μg/l air

CC1=C(O)C(=O)CC1 [2-HYDROXY-3-METHYL-2-CYCLOPENTEN-1-ONE]
Volatility (μg/l air) [2, 7]: 396.50 μg/l air

CCC(C)C1(C)COC(C2CCC(C)=CC2C)OC1 (stereo not shown)
Volatility (μg/l air) [2, 6]: 3.82 μg/l air

CC(C)C(=O)OCCc1ccccc1 [2-PHENYLETHYL ISOBUTYRATE]
Volatility (μg/l air) [2, 8]: 67.38 μg/l air
Volatility (μg/l air) [2, 7]: 67.38 μg/l air
Volatility (μg/l air) [2, 5]: 67.38 μg/l air

CCC(O)COC1CCCCC1C(C)(C)C (racemic)
Volatility (μg/l air) [2, 6]: 205.05 μg/l air

CCCCCC1CCCC1O (racemic) [(+−)-2-PENTYL-1-CYCLOPENTANOL]
Volatility (μg/l air) [2, 7]: 97.79 μg/l air

CCC(C)C(=O)OCCc1ccccc1 (racemic) [(+−)-2-PHENYLETHYL 2-METHYLBUTANOATE]
Volatility (μg/l air) [2, 8]: 37.73 μg/l air

CCCCCCCCCCO [1-DECANOL]
Volatility [2, 4]: 31.90 μg/l air

O=C1CCCCCCCCCCC(=O)OCCO1 [1,4-dioxacyclohexadecane-5,16-dione]
logP ([1]; n-octanol/water): 3.83
Volatility (μg/l air) [2, 7]: 0.46 μg/l air

CCCC(O)CCC1C(C)CCC(C)C1(C)C (racemic)
Volatility (μg/l air) [2, 6]: 3.42 μg/l air

CC(C)CC(=O)OCc1ccccc1 [BENZYL 3-METHYLBUTANOATE]
Volatility (μg/l air) [2, 8]: 63.56 μg/l air
Volatility (μg/l air) [2, 7]: 63.56 μg/l air

COCCc1ccccc1 [(2-METHOXYETHYL)BENZENE]
Volatility [2, 4]: 1239.07 μg/l air

CC(=O)C=CC1C(C)CCC(C)C1(C)C (racemic)
Volatility (μg/l air) [2, 6]: 20.50 μg/l air
Log P (n-octanol/water) [3, 6]: 4.62

CCCC1CCC(O)C(OC)C1 (stereo not shown) [2-METHOXY-4-PROPYL-1-CYCLOHEXANOL]
Volatility [2]: 189.74 μg/l air

Cc1ncsc1CCO [2-(4-METHYL-1,3-THIAZOL-5-YL)-1-ETHANOL]
Volatility (μg/l air) [2, 7]: 2.36 μg/l air

C/C=C(\C)C(=O)OCC/C=C\CC
logP ([1]; n-octanol/water): 3.96
Volatility [2, 4]: 168.78 μg/l air

(2,2-DIMETHOXYETHYL)BENZENE
Volatility [2, 4]: 456.97 μg/l air
Log P (n-octanol/water) [3, 4]: 2.10

CC(C)(C)C1CCC(=O)CC1 [4-(2-methyl-2-propanyl)cyclohexanone]
logP ([1]; n-octanol/water): 2.77
Volatility (μg/l air) [2, 6]: 755.28 μg/l air

CCC(C)(O)CCCC(C)C (racemic)
Volatility [2, 4]: 421.15 μg/l air

CCCCC1CCC(=O)O1 (racemic) [(+−)-4-OCTANOLIDE]
Volatility (μg/l air) [2, 8]: 108.41 μg/l air
Volatility (μg/l air) [2, 5]: 108.41 μg/l air

CC(=O)O[C@@H]1C(C)(C)CCC[C@]12CC=C(C)C[C@H]2C (racemic)
logP ([1]; n-octanol/water): 6.44
Volatility (μg/l air) [2, 6]: 8.25 μg/l air

CC1=CCC(/C=C/C(C)C(C)O)C1(C)C (stereo not shown)
Volatility (μg/l air) [2, 6]: 20.41 μg/l air

CC1C(C)(C)C2=C(C(=O)CCC2)C1(C)C (stereo not shown)
Volatility (μg/l air) [2, 6]: 29.81 μg/l air
